{"source": "ChEMBL document CHEMBL1156023", "about": "“Grassystatins A-C from marine cyanobacteria, potent cathepsin E inhibitors that reduce antigen presentation” (J Med Chem, 2009)", "key": {"Caspase-9": {"biological_target": "Caspase-9 (Homo sapiens, UniProt P55211)", "assay": "Inhibition of caspase 9 after 10 to 15 mins by fluorescence assay"}, "[1]": {"biological_target": "Chymotrypsin-like elastase family member 1 (Sus scrofa) (UniProt P00772)", "sequence (P00772 whole entry)": "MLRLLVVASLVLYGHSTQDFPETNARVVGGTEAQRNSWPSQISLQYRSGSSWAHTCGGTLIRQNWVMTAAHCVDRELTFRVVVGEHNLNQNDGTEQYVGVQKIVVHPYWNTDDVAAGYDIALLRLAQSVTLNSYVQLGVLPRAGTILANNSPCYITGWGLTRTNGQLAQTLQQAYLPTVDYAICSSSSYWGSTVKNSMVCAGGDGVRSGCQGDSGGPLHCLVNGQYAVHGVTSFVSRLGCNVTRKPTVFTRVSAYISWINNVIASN", "assay": "Inhibition of porcine pancreatic elastase assessed as residual activity at 10 uM after 10 to 15 mins by fluorescence assay relative to control"}, "Caspase-3 (Homo sapiens)": {"biological_target": "Caspase-3 (Homo sapiens) (UniProt P42574)", "assay": "Inhibition of caspase 3 assessed as residual activity at 10 uM after 10 to 15 mins by fluorescence assay relative to control"}, "[2]": {"biological_target": "Kallikrein-8 (Homo sapiens) (UniProt O60259)", "assay": "Inhibition of kallikrein 8 assessed as residual activity at 10 uM after 10 to 15 mins by fluorescence assay relative to control"}, "[3]": {"biological_target": "Dipeptidyl peptidase 4 (Homo sapiens) (UniProt P27487)", "sequence (P27487 whole entry, looked up)": "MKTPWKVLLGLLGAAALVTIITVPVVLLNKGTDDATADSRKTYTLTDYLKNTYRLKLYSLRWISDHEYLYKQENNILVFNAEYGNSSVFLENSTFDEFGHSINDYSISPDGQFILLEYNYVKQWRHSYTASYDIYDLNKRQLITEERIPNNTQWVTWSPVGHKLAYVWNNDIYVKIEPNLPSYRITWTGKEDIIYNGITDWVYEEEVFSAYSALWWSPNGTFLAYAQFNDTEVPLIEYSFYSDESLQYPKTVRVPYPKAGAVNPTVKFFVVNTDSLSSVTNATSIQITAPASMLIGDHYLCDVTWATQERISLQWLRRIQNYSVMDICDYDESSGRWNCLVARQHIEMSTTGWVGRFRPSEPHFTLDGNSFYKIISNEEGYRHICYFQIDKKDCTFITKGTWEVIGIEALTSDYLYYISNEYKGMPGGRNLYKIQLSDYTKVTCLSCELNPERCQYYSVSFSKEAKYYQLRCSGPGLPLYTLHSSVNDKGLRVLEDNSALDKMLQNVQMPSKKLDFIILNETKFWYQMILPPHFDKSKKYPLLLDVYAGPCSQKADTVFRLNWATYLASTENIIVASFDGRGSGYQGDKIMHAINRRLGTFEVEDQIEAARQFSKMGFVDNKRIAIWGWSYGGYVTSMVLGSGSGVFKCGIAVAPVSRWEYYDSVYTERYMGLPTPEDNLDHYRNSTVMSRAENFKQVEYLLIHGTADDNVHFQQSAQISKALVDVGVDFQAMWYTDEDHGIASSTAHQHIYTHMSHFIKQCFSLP", "assay": "Inhibition of DPP4 assessed as residual activity at 10 uM after 10 to 15 mins by fluorescence assay relative to control"}, "[4]": {"biological_target": "T1, Matrix metalloproteinase-14 (Homo sapiens, UniProt P50281)", "assay": "Inhibition of MMP14 assessed as residual activity at 10 uM after 10 to 15 mins by fluorescence assay relative to control"}, "Caspase-9 (Homo sapiens)": {"biological_target": "Caspase-9 (Homo sapiens) (UniProt P55211)", "assay": "Inhibition of caspase 9 assessed as residual activity at 10 uM after 10 to 15 mins by fluorescence assay relative to control"}, "[5]": {"biological_target": "Dipeptidyl peptidase 1 (Homo sapiens) (UniProt P53634)", "assay": "Inhibition of cathepsin C assessed as residual activity at 10 uM after 10 to 15 mins by fluorescence assay relative to control"}, "[6]": {"biological_target": "Prothrombin (Homo sapiens) (UniProt P00734)", "assay": "Inhibition of thrombin alpha assessed as residual activity at 10 uM after 10 to 15 mins by fluorescence assay relative to control"}, "[7]": {"biological_target": "Matrix metalloproteinase-9 (Homo sapiens, UniProt P14780)", "assay": "Inhibition of MMP9 assessed as residual activity at 10 uM after 10 to 15 mins by fluorescence assay relative to control"}, "Papain (Carica papaya)": {"biological_target": "Papain (Carica papaya) (UniProt P00784)", "assay": "Inhibition of papaya papain assessed as residual activity at 10 uM after 10 to 15 mins by fluorescence assay relative to control"}, "[8]": {"biological_target": "Pro-cathepsin H (Homo sapiens) (UniProt P09668)", "assay": "Inhibition of cathepsin H assessed as residual activity at 10 uM after 10 to 15 mins by fluorescence assay relative to control"}, "[9]": {"biological_target": "72 kDa type IV collagenase (Homo sapiens, UniProt P08253)", "assay": "Inhibition of MMP2 after 10 to 15 mins by fluorescence assay"}, "[10]": {"biological_target": "Vitamin K-dependent protein C (Homo sapiens, UniProt P04070)", "assay": "Inhibition of activated protein C after 10 to 15 mins by fluorescence assay in presence of 50% […]"}, "[11]": {"biological_target": "Matrilysin (Homo sapiens) (UniProt P09237)", "sequence (P09237 whole entry)": "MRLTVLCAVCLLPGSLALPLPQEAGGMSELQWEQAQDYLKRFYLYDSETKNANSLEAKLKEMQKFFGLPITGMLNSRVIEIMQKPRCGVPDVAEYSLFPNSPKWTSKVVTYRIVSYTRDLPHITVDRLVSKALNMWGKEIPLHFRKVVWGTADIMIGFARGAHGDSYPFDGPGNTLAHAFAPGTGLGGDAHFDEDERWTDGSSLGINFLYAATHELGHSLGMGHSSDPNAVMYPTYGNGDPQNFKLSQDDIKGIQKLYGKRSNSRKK", "assay": "Inhibition of MMP7 assessed as residual activity at 10 uM after 10 to 15 mins by fluorescence assay relative to control"}, "[12]": {"biological_target": "Stromelysin-3 (Homo sapiens) (UniProt P24347)", "sequence (P24347 whole entry)": "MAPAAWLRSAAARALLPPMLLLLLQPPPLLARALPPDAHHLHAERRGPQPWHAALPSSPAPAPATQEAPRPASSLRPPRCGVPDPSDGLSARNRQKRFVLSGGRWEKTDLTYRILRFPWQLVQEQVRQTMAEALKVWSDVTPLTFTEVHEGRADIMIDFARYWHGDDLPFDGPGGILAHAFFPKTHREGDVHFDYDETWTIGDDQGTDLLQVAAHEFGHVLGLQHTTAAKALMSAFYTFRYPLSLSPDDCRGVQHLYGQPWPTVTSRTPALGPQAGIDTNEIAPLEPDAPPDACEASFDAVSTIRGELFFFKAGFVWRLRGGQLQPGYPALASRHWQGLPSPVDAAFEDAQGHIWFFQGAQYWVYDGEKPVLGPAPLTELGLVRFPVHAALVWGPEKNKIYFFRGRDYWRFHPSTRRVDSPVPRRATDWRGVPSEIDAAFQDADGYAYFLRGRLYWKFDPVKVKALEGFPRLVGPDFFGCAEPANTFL", "assay": "Inhibition of MMP11 assessed as residual activity at 10 uM after 10 to 15 mins by fluorescence assay relative to control"}, "Stromelysin-1": {"biological_target": "Stromelysin-1 (Homo sapiens, UniProt P08254)", "assay": "Inhibition of MMP3 assessed as residual activity at 10 uM after 10 to 15 mins by fluorescence assay relative to control"}, "Stromelysin-2": {"biological_target": "Stromelysin-2 (Homo sapiens, UniProt P09238)", "assay": "Inhibition of MMP10 catalytic domain after 10 to 15 mins by fluorescence assay"}, "[13]": {"biological_target": "T1, Matrix metalloproteinase-14", "assay": "Inhibition of MMP14 catalytic domain after 10 to 15 mins by fluorescence assay"}, "[14]": {"biological_target": "Cathepsin E (Homo sapiens) (UniProt P14091)", "conditions": "5.08 to 100000 nM"}, "[15]": {"biological_target": "Disintegrin and metalloproteinase domain-containing protein 10 (Homo sapiens) (UniProt O14672)", "sequence (O14672 whole entry, the tested form may be a part)": "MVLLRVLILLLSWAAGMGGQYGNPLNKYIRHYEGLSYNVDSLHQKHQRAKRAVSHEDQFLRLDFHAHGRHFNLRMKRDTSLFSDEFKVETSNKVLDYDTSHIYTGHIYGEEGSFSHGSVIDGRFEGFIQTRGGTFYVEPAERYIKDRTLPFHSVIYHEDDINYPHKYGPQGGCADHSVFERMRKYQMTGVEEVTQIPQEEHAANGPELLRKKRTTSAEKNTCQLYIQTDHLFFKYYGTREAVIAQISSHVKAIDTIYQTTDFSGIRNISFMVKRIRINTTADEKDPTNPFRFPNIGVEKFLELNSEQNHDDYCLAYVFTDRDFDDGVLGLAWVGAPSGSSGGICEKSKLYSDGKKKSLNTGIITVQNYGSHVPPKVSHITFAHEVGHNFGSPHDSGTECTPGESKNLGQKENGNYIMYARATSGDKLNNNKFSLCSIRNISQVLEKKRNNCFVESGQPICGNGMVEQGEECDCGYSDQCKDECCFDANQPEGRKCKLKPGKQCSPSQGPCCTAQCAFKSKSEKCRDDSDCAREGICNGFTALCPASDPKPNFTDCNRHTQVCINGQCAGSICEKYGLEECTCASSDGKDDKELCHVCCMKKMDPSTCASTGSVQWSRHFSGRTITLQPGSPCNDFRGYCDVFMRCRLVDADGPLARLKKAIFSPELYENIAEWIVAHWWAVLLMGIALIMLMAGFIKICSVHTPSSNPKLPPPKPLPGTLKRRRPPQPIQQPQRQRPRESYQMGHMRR", "assay": "Inhibition of ADAM10 assessed as residual activity at 10 uM after 10 to 15 mins by fluorescence assay relative to control"}, "[16]": {"biological_target": "Tryptase gamma (Homo sapiens) (UniProt Q9NRR2)", "assay": "Inhibition of human lung tryptase gamma1 assessed as residual activity at 10 uM after 10 to 15 mins by fluorescence assay relative to control"}, "[17]": {"biological_target": "Cathepsin Z (Homo sapiens) (UniProt Q9UBR2)", "sequence (Q9UBR2 whole entry)": "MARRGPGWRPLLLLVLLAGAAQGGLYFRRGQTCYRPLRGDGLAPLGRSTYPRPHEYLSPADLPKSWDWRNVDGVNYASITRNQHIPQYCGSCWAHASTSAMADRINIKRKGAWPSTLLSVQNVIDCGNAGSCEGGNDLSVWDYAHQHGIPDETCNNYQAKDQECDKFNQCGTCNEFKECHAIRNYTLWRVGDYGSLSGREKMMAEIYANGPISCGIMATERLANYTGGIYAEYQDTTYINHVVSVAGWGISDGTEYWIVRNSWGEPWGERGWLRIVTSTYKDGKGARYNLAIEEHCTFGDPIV", "assay": "Inhibition of cathepsin Z assessed as residual activity at 10 uM after 10 to 15 mins by fluorescence assay relative to control"}, "[18]": {"biological_target": "Beta-secretase 1 (Homo sapiens) (UniProt P56817)", "sequence (P56817 whole entry)": "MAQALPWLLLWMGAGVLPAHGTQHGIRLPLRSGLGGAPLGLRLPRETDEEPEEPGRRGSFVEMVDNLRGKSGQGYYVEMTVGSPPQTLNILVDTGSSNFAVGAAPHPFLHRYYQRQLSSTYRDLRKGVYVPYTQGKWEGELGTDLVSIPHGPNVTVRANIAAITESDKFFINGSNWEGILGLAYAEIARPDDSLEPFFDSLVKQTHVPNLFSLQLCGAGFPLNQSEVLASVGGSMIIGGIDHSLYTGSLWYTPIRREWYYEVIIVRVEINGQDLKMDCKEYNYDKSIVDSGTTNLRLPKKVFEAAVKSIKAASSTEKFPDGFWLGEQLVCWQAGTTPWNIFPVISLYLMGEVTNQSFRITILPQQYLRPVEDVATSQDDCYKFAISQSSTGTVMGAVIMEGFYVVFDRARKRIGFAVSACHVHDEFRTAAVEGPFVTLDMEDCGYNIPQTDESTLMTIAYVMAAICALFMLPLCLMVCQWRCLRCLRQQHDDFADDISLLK", "assay": "Inhibition of BACE1 assessed as residual activity at 10 uM after 10 to 15 mins by fluorescence assay relative to control"}, "[19]": {"biological_target": "Caspase-14 (Homo sapiens) (UniProt P31944)", "assay": "Inhibition of caspase 14 assessed as residual activity at 10 uM after 10 to 15 mins by fluorescence assay relative to control"}, "[20]": {"biological_target": "Angiotensin-converting enzyme (Homo sapiens) (UniProt P12821)", "assay": "Inhibition of ACE1 assessed as residual activity at 10 uM after 10 to 15 mins by fluorescence assay relative to control"}, "Chymase (Homo sapiens)": {"biological_target": "Chymase (Homo sapiens) (UniProt P23946)", "sequence (P23946 whole entry)": "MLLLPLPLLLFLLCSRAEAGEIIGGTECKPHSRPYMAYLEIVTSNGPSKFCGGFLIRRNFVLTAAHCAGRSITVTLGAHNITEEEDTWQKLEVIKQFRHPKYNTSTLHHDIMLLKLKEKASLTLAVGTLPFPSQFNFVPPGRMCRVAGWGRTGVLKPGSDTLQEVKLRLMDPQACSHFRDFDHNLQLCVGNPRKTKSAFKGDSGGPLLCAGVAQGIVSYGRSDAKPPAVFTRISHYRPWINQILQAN", "assay": "Inhibition of chymase assessed as residual activity at 10 uM after 10 to 15 mins by fluorescence assay relative to control"}, "Neutrophil collagenase": {"biological_target": "Neutrophil collagenase (Homo sapiens, UniProt P22894)", "sequence (P22894 101-467 limits assumed)": "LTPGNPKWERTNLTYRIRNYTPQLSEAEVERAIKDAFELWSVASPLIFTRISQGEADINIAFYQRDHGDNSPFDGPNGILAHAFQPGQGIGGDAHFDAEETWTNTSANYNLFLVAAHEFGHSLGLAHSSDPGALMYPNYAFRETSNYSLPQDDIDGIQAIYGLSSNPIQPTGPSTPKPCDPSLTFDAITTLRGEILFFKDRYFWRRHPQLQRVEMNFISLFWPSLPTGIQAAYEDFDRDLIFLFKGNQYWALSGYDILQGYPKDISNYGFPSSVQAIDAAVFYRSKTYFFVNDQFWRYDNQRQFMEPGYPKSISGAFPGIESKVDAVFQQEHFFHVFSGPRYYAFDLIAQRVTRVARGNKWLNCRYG", "assay": "Inhibition of MMP8 assessed as residual activity at 10 uM after 10 to 15 mins by fluorescence assay relative to control"}, "Caspase-5": {"biological_target": "Caspase-5 (Homo sapiens, UniProt P51878)", "sequence (P51878 137-327 limits assumed)": "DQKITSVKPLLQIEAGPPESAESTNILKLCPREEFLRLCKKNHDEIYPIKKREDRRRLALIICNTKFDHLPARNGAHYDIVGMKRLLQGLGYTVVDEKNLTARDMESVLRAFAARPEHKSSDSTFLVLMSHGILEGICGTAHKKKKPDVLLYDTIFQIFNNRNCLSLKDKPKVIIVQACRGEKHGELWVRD", "sequence (P51878 347-434 limits assumed)": "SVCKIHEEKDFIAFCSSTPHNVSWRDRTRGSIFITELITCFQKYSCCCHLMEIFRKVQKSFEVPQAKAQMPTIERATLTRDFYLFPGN", "assay": "Inhibition of caspase 5 after 10 to 15 mins by fluorescence assay"}, "[21]": {"biological_target": "Tryptase beta-1 (Homo sapiens) (UniProt Q15661)", "sequence (Q15661 31-275 limits assumed)": "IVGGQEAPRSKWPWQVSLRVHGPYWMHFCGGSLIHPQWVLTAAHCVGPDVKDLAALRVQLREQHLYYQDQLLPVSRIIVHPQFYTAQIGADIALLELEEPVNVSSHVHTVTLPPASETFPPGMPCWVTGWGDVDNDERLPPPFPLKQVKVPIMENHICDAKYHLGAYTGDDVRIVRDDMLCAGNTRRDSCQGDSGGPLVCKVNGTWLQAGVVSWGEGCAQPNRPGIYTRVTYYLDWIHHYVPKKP", "assay": "Inhibition of tryptase beta2 assessed as residual activity at 10 uM after 10 to 15 mins by fluorescence assay relative to control"}, "[22]": {"biological_target": "Caspase-10 (Homo sapiens) (UniProt Q92851)", "sequence (Q92851 220-415 limits assumed)": "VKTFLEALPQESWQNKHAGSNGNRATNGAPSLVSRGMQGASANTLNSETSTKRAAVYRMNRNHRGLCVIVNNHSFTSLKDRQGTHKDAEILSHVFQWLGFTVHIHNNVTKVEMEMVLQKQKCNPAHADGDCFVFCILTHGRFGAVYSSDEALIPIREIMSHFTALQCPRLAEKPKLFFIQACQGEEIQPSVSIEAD", "sequence (Q92851 416-521 limits assumed)": "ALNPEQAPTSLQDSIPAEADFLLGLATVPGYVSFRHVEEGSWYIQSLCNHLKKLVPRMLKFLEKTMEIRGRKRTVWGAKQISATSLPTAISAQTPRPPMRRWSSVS", "assay": "Inhibition of caspase 10 assessed as residual activity at 10 uM after 10 to 15 mins by fluorescence assay relative to control"}, "Caspase-1 (Homo sapiens)": {"biological_target": "Caspase-1 (Homo sapiens) (UniProt P29466)", "assay": "Inhibition of caspase 1 assessed as residual activity at 10 uM after 10 to 15 mins by fluorescence assay relative to control"}}, "note": "Square brackets hold non-standard residues; d marks the D form. Peptide text beside a SMILES is read from it. * marks the point of attachment. Sta = CC(C)C[C@H](N)[C@@H](O)CC(=O)O; NMe2Val = CC(C)[C@@H](C(=O)*)N(C)C; dNMeF = CN[C@H](Cc1ccccc1)C(=O)O; dHiv = CC(C)[C@@H](O)C(=O)O; Hiv = CC(C)[C@H](O)C(=O)O"}
{"smiles": "COC(=O)[C@@H]1CCCN1C(=O)[C@@H](Cc1ccccc1)N(C)C(=O)[C@H](C)NC(=O)[C@@H](NC(=O)C[C@H](O)[C@H](CC(C)C)NC(=O)[C@H](CC(N)=O)NC(=O)[C@H](CC(C)C)NC(=O)[C@H](OC(=O)[C@@H](OC(=O)[C@H](C(C)C)N(C)C)C(C)C)C(C)C)[C@@H](C)O", "note": "[GRASSYSTATIN A] (NMe2Val-[Hiv][dHiv]LN[Sta]TA[dNMeF]P-OMe)", "values": [{"measurement": "IC50", "setting": "Caspase-9", "result": 5, "unit": "µM"}, {"measurement": "Activity", "setting": "[1]", "result": 66, "unit": "%"}, {"measurement": "Activity", "setting": "Caspase-3 (Homo sapiens)", "result": 63, "unit": "%"}, {"measurement": "Activity", "setting": "[2]", "result": 101, "unit": "%"}, {"measurement": "Activity", "setting": "[3]", "result": 71, "unit": "%"}, {"measurement": "Activity", "setting": "[4]", "result": 76, "unit": "%"}, {"measurement": "Activity", "setting": "Caspase-9 (Homo sapiens)", "result": 78, "unit": "%"}, {"measurement": "Activity", "setting": "[5]", "result": 110, "unit": "%"}, {"measurement": "Activity", "setting": "[6]", "result": 86, "unit": "%"}, {"measurement": "Activity", "setting": "[7]", "result": 81, "unit": "%"}, {"measurement": "Activity", "setting": "Papain (Carica papaya)", "result": 101, "unit": "%"}, {"measurement": "Activity", "setting": "[8]", "result": 80, "unit": "%"}, {"measurement": "IC50", "setting": "[9]", "result": 5, "unit": "µM"}, {"measurement": "IC50", "setting": "[10]", "result": 50, "unit": "µM"}, {"measurement": "Activity", "setting": "[11]", "result": 90, "unit": "%"}, {"measurement": "Activity", "setting": "[12]", "result": 88, "unit": "%"}, {"measurement": "Activity", "setting": "Stromelysin-1", "result": 86, "unit": "%"}, {"measurement": "IC50", "setting": "Stromelysin-2", "result": 5, "unit": "µM"}, {"measurement": "IC50", "setting": "[13]", "result": 5, "unit": "µM"}, {"measurement": "inhibition", "setting": "[14]", "result": "tde"}, {"measurement": "Activity", "setting": "[15]", "result": 0, "unit": "%"}, {"measurement": "Activity", "setting": "[16]", "result": 80, "unit": "%"}, {"measurement": "Activity", "setting": "[17]", "result": 94, "unit": "%"}, {"measurement": "Activity", "setting": "[18]", "result": 100, "unit": "%"}, {"measurement": "Activity", "setting": "[19]", "result": 96, "unit": "%"}, {"measurement": "Activity", "setting": "[20]", "result": 84, "unit": "%"}, {"measurement": "Activity", "setting": "Chymase (Homo sapiens)", "result": 90, "unit": "%"}, {"measurement": "Activity", "setting": "Neutrophil collagenase", "result": 70, "unit": "%"}, {"measurement": "IC50", "setting": "Caspase-5", "result": 5, "unit": "µM"}, {"measurement": "Activity", "setting": "[21]", "result": 74, "unit": "%"}, {"measurement": "Activity", "setting": "[22]", "result": 102, "unit": "%"}, {"measurement": "Activity", "setting": "Caspase-1 (Homo sapiens)", "result": 90, "unit": "%"}]}
